Assay results published in patent US10869903B2, “Probiotic and prebiotic compositions, and methods of use thereof for treatment and prevention of graft versus host disease” (Evelo Biosciences, Inc., priority 2014, dated 2020).

Assays:
[1] = tested on: anaerobic commensal bacteria; assay: Carbon source usage profiling on Biolog PM01 and PM02A plates (OD 750 nm); assay type: cell-based
[2] = Normal human volunteer study of D-xylose: serum and urine pharmacokinetics; assay type: in vivo, healthy, adult volunteers
Source text: Blood and urine were collected at pre-specified pre- and post-ingestion time points to measure D-xylose levels and to characterize the systemic absorption profiles of D-xylose. Phoenix® WinNonLin®, Version 6.2.1, was used for PK analyses. Serum D-xylose concentrations were summarized by cohort using nominal sample times according to actual amount received using summary statistics (n, coefficient of variation [CV], mean, standard deviation [SD], median, minimum, and maximum). Evidence for the occurrence of steady-state was assessed graphically by comparing the time course of either trough or 2-hour post-ingestion serum concentrations of D-xylose as different levels of D-xylose. Accumulation was assessed by comparing the 2-hour post-first-ingestion serum levels with those observed at Week 2 (Day 15) and Week 4 (Day 28). […] Urine PK parameters for D-xylose levels included Ae(0-t) (cumulative amount of sweetener recovered in urine) and percent sweetener amount excreted over a 5-hour period.

Lactobacillus johnsonii = assay type: cell-based
[3] = Normal human volunteer study of D-xylose: CRP, serum cytokines, T-cell markers; assay type: in vivo, healthy, adult volunteers
Source text: Blood was collected at pre-specified pre- and post-ingestion time points to evaluate C-reactive protein (CRP), serum cytokines (tumor necrosis factor alpha [TNF-α], interleukin [IL]-2, IL-6, interferon gamma [IFN-γ], and IL-10), and T-cell markers CD3, CD4, CD8, CD25, and FOXP3. Plasma was also stored and may be tested for biomarkers and/or metabolic markers for up to 7 years.
Summary statistics (n, mean, standard deviation, median, minimum, and maximum) were presented for serum concentrations of CRP, flow cytometry T-cell markers (CD3, CD4, CD8, CD25, and FOXP3), and cytokines (TNF-α, IL-2, IL-6, IFN-γ, and IL-10) as per their nominal time points.

GVHD = tested on: GVHD; design: species or system mice; settings: mouse, in vivo
[4] = human, in vivo
Procedure: D-xylose is a carbon source generally preferred by anaerobic bacteria. […] A parallel, double-blind, 5 cohort escalation food safety study was conducted to examine D-xylose in normal human volunteers. The study was a double-blind, single-center, parallel group study designed to evaluate the tolerability and potential microbiome changes induced by ingestion of D-xylose at 5 different amounts in healthy, adult volunteers enrolled at 1 study center in the United States (US).
Subjects were screened for eligibility within 21 days prior to the first planned ingestion of study sweetener on Day 1 (Baseline). […]
Subjects returned to the study center weekly on Days 8, 15, 22, and 28 for ingestion, tolerability, and compliance evaluations. Safety was evaluated on a continual basis through adverse events (AE) monitoring, clinical laboratory measurements, vital sign monitoring, physical examinations, electrocardiograms (ECGs), telephone follow-up, and electronic subject ingestion diaries. Stool was collected pre-ingestion and at pre-specified time points, and post-ingestion samples were evaluated for changes in the gut microbiome compared with Baseline for all subjects. […]
Safety was evaluated on a continual basis through AE monitoring, clinical laboratory measurements, vital sign monitoring, physical examinations, ECGs, telephone follow-up, and electronic subject ingestion diaries. […]

blautia = assay: Sugar fermentation in media lacking glucose (pH and optical density); assay type: cell-based
[5] = tested on: Tregs in the large intestine; settings: mouse, in vivo; cited from earlier work
[6] = tested on: microbiome of the gut and the vagina; design: species or system C57Bl/6 female mice; settings: mouse, in vivo
Source text: The trillions of organisms forming the microbiome function as an organ system interconnected throughout the body. The possibility that modification of the microbiome in a given physical location may influence the microbiome at other sites in the body (distal augmentation) was investigated. Seven week old C57Bl/6 female mice were acclimatized for 7 days prior to the start of the study by daily handling and shuffling between cages. All mice were housed at three mice per cage in individually vented cages (Thoren, Hazleton, Pa.). At day 0, baseline fresh fecal pellets, and vaginal lavages with 100 μL of sterile double-distilled water were collected and immediately frozen at −80° C. for microbiome analysis. […] Water alone is not expected to influence the microbiome and acted as a negative control. […] The impact of oral vancomycin is therefore expected to be limited to the gastrointestinal tract such that microbiome changes elsewhere in the body (e.g. vagina) would be attributable to distal augmentation. […]
Isolation and sequencing of microbial DNA from the stool and vaginal samples was performed by DNA Genotek (Ottawa, ON, Canada). The V3-V4 region of the 16S ribosomal subunit was amplified with custom PCR primers and sequenced on an Illumina MiSeq to a minimum acceptable read depth of 25,000 sequences per sample. […]

[7] = tested on: human peripheral blood mononuclear cells (PBMCs); assay: Cytokine release by human PBMCs incubated with commensal bacteria, alone or combined with E. faecalis (Luminex); assay type: cell-based; settings: for anti-inflammatory profile for a Th-1-driven condition such as GVHD: overall assessment
Procedure: An in vitro system was developed to efficiently test the inflammatory and immunomodulatory properties of different human commensal bacteria on human peripheral blood mononuclear cells (PBMCs). Experiments were carried out with 21 bacterial candidates to profile their anti-inflammatory properties against human PBMCs. The innate properties of bacteria alone on human PBMCs were tested as well as their ability to counteract the pro-inflammatory activity of Enterococcus feacalis.
Human PBMCs were isolated from fresh blood by density-gradient centrifugation using Ficoll (1-4). […] The results are presented in FIGS. 2-5 for all time points. […] The 24 h results are shown as a composite in FIG. 6 and with statistical analysis on individual cytokines in FIGS. 7-10. The results represent the properties of each bacterial species against human PBMCs and their ability to counteract inflammatory stimulation with E. faecalis in vitro.

tumors = settings: oral administration; anti-PD-1 and anti-CTLA-4 antibody therapies; cited from earlier work

## O=C[C@H](O)[C@@H](O)[C@H](O)CO [D-xylose]
[1]
  use as a carbon source by bacterial strains: used as a carbon source by several bacterial strains
[2]; 1 g TID cohort, Days 1, 15 and 28
  ingested amount recovered in urine within 5 hours post-ingestion: approximately 40%
[2]; 1 to 15 g TID
  serum D-xylose concentrations versus ingestion amount: increased linearly with increasing ingestion amounts
[2]; Day 15, 15 mg TID cohort, variability high
  accumulation ratio of serum D-xylose: approximately 1.9 fold
[2]; Day 28, 15 g TID
  accumulation ratio of serum D-xylose: 1.68
Lactobacillus johnsonii
  augmentation (fermentation) of lactobacillus: not lactobacillus
[3]; 2 g and 15 g D-xylose cohorts
  levels of serum interferon gamma over time: trend for reduced levels
[3]; all cohorts of the sweetener
  subjects with normal serum CRP at Baseline and at least 1 post-ingestion CRP value >2.9 mg/L: 8.3%
GVHD
  Blautia level in the intestinal flora: expansion of Blautia in the intestinal flora
  GVHD related survival: improved survival
Serum endotoxin; mouse, in vivo
  basal levels of serum endotoxin: reduced these basal levels over time
  effect on increase in serum endotoxin level caused by cipro: appeared to counteract the increase
  effect on increase in serum endotoxin level caused by enro: but not enro
[4]
  SAEs, severe AEs, subject deaths: No SAEs, severe AEs, or subject deaths
  tolerability: well tolerated
blautia
  augmentation (fermentation) of blautia: specifically augments blautia

## CC(=O)O [acetate]
[5]
  numbers of Tregs in the large intestine: restored normal numbers of Tregs

## CCN1CCN(c2cc3c(cc2F)c(=O)c(C(=O)O)cn3C2CC2)CC1 [enro, enrofloxacin, reference compound]
Serum endotoxin; 0.25 g/L in drinking water day −7 to day −2, measured 2 days after a 5 day course (day 0)
  serum endotoxin levels after antibiotic: led to an increase in serum endotoxin levels

## CCC(=O)O [propionate]
[5]
  numbers of Tregs in the large intestine: restored normal numbers of Tregs

## C[C@H](O)[C@H](O)[C@@H](O)[C@@H](O)C=O [rhamnose]
Lactobacillus johnsonii
  augmentation (fermentation) of lactobacillus: not lactobacillus
blautia
  augmentation (fermentation) of blautia: specifically augments blautia

## CN[C@H](CC(C)C)C(=O)N[C@H]1C(=O)N[C@@H](CC(N)=O)C(=O)N[C@H]2C(=O)N[C@H]3C(=O)N[C@H](C(=O)N[C@H](C(=O)O)c4cc(O)cc(O)c4-c4cc3ccc4O)[C@H](O)c3ccc(c(Cl)c3)Oc3cc2cc(c3O[C@@H]2O[C@H](CO)[C@@H](O)[C@H](O)[C@H]2O[C@H]2C[C@](C)(N)[C@H](O)[C@H](C)O2)Oc2ccc(cc2Cl)[C@H]1O [vancomycin]
[6]
  impact on the microbiome of the gut (PCA at family level, fecal samples): strong impact on the microbiome of the gut
[6]; po
  day 0 to day 6 pattern in vaginal samples (PCA): showed an overall difference

## B. luti [EPV3]
[7]; bacterium alone, 24 h
  intrinsic inflammatory activity (induction of pro-inflammatory cytokines) compared to EPV 8: relatively low intrinsic inflammatory activity
[7]; combination with EPV 8, 24 h
  reduction of induction of pro-inflammatory cytokines by EPV 8, including IL-6, MCP-1, IL-12p70, IFNγ: able to reduce
[7]
  anti-inflammatory profile for a Th-1-driven condition such as GVHD: significantly desirable anti-inflammatory profile

## B. wexlerae [EPV5]
[7]
  anti-inflammatory profile for a Th-1-driven condition such as GVHD: suboptimal anti-inflammatory profile

## Bacteroides
tumors
  responsiveness to checkpoint inhibitor therapy in cancer: increases the responsiveness

## Bifidobacterium
tumors
  responsiveness to checkpoint inhibitor therapy in cancer: increases the responsiveness

## Lactobacillus
tumors
  responsiveness to checkpoint inhibitor therapy in cancer: not
